Experimental data published in patent US20020146823A1, “Method for promoting hematopoietic and mesenchymal cell proliferation and differentiation” (The University of Southern California, priority 1997, published 2002).

How the values were obtained:
[1] = test system: rat MSC; assay: Rat mesenchymal stem cell proliferation in bone marrow cultures; type: cell-based, Sprague Dawley rats; details: 1 to 100 μg/ml
Protocol: These studies were conducted to determine the effect that AII would have on the proliferation of MSC. Bone marrow cells were harvested from the femur and tibia of female Sprague Dawley rats by flushing the bones with Dulbecco's Minimal Essential Medium-High Glucose (“DMEM-HG”) with a syringe and an 18 gauge needle. These cells were cultured in 24 well plates at 5×10^3 cells/mm^2 in DMEM-HG containing selected lots of fetal calf serum (FCS) and antibiotics (complete medium) at 37° C. incubator containing 5% CO2 in air. Twenty-four hours after the initiation of the cultures the medium and nonadherent cells were aspirated and fresh medium was added. To each of these several wells, complete medium with (1 to 100 μg/ml) or without AII was added. The migration of cells from the clones and their proliferation was followed by microscopic examination. Every 4 days the old medium was removed and fresh medium was added to the cultures. These studies were conducted to determine the effect that inclusion of All analogues and fragments in the cell culture of MSC would have on the proliferation of these cells. Bone marrow cells were harvested from the femur and tibia of female Sprague Dawley rats by flushing the bones with Dulbecco's Minimal Essential Medium-High Glucose (“DMEM-HG”) with a syringe and an 18 gauge needle. […]

[2] = test system: human PBMC; assay: Proliferative response of human lymphocytes (3H-thymidine incorporation); type: cell-based; details: absence of mitogen
Protocol: Upon stimulation of lymphocytes with mitogen or antigen, these cells undergo blastogenesis and proliferation. In the absence of such stimuli, proliferation is seldom observed. One method to measure cellular proliferation in a short term assay is via measurement of the amount of the nucleotide thymidine that is incorporated into newly synthesized DNA. The effect of All on the proliferation of human PBMC in the presence and absence of pokeweed mitogen (“PWM”) was assessed.
Human PBMC were collected from normal volunteers and isolated via Ficoll Hypaque (Sigma Chemical, St. Louis) density centrifugation. After isolation of the buffy coat, the cells were washed 3× to remove the Ficoll Hypaque, counted in trypan blue (0.01%) and resuspended at a concentration of 1×10^6 cells/ml in RPMI 1640 containing 10% fetal calf serum and antibiotics. A 100 μl aliquot of cells was added to each well. Thereafter, various concentrations (0.1 to 1000 μg/ml final concentration) of AII in RPMI 1640 containing 10% FCS and antibiotics were added to various wells in triplicate. To the appropriate wells, PWM (20 μg/ml final concentration) was added. These plates were incubated at 37° C. in 5% CO2 for 48 hours. […] These filters were dried, placed in scintillation fluid and the amount of thymidine incorporated was determined by beta counting.

[3] = test system: murine peritoneal macrophages; assay: Respiratory burst (hydrogen peroxide generation) in murine peritoneal macrophages; type: cell-based; details: alone and in response to PMA; 4 hours exposure
Protocol: The respiratory burst of leukocytes (macrophages and polymorphonuclear neutrophils) is one component of the mediator system used to kill bacteria. As with phagocytosis, the level of this respiratory burst activity in resident macrophages is low. […] Studies were conducted to assess the effect of in vitro exposure of murine or rat peritoneal macrophages and human peripheral blood mononuclear cells (PBMC) to various concentrations of AII on the capacity to generate hydrogen peroxide via the respiratory burst system. For the human studies, five different donors were examined.
The murine or rat peritoneal cells were harvested by lavage with 5-15 ml of cold PBS with 0.5% bovine serum albumin. The human PBMC were harvested by venipuncture from normal human volunteers and isolated from peripheral blood by Ficoll Hypaque density centrifugation. After isolation, the cells were resuspended at 1×10^6 cells/ml and placed at 100 μl per well into 96 well plates. The cells were incubated with various concentrations of AII or AII analogues and fragments for 4 hours at 37° C. The cells were then preloaded with a fluorescent probe for hydrogen peroxide, 2,7 dichlorofluorescein acetate, which is nonfluorescent in the absence of hydrogen peroxide. […] One hour after stimulation the level of fluorescence produced was measured on a Cytofluor 2350 multiwell fluorometer.

[4] = test system: Murine Peritoneal Macrophages; assay: Phagocytic capability of murine peritoneal macrophages (opsonized yeast ingestion); type: cell-based, C57B1/6 mice
Protocol: Resident peritoneal macrophages have very little phagocytic activity. Exposure of macrophages to inflammatory or activating agents will increase this macrophage function. Resident peritoneal macrophages were harvested from C57B1/6 mice or Sprague Dawley rats and resuspended at a concentration of 1×10^6 cells/ml in phosphate buffered saline (PBS). Five separate 0.5 ml cell aliquots were placed on a glass coverslip in a 35 mm petri dish. Prior to incubation, either 0.5 ml of PBS, AII, or AII analogues or fragments at between 1-1000 ug/ml final concentration was added to the individual cover slips. The dishes containing the cover slips were then incubated at 37° C. for 4 hours, after which the cover slips were washed 3 to 6 times with PBS. Opsonized yeast particles (Sigma Chemical Co.) (yeast opsonized with adult serum from the same species as that under study) were added to the cover slips and incubated for 2 hours, after which the cover slips were again washed with PBS and inverted onto a glass slide. The number of macrophages that ingested yeast and the number of yeast per macrophage ingested was then determined microscopically. At least 100 macrophages per coverslip were counted. The data from this study are summarized in Tables 3 and 4 and FIGS. 1 and 2.

Substance: Asp-Arg-Val-Tyr-Ile-His-Pro-Phe (DRVYIHPF; printed: Asp-Arg-Val-Tyr-Ile-His-Pro-Phe) [AII, octapeptide present in humans and other species; known pressor agent, commercially available]
- number of MSC ([1]; all time points examined): increase in the number of MSC in a concentration dependent manner
- number of sites from which MSC were migrating (CFU) and size (number of cells) of colonies formed ([1]; complete medium with serum): significantly increased
- thymidine incorporation [2]: no increase
- ability of leukocytes to generate hydrogen peroxide [3]: increased the ability of leukocytes to generate hydrogen peroxide both alone and in response to stimulation with PMA
- # Macrophages with Yeast, Yeast # 0 ([4]; AII 10 μg/ml): 100
- # Macrophages with Yeast, Yeast # 7-9 ([4]; AII 10 μg/ml): 0
- # Macrophages with Yeast, Yeast # 0 ([4]; AII 100 μg/ml): 100
- # Macrophages with Yeast, Yeast # 7-9 ([4]; AII 100 μg/ml): 0
- % Ingesting ([4]; AII 100 μg/ml): 16.7%
- # Macrophages with Yeast, Yeast # 0 ([4]; AII 1000 μg/ml): 100
- # Macrophages with Yeast, Yeast # 7-9 ([4]; AII 1000 μg/ml): 0
- % Ingesting ([4]; AII 1000 μg/ml): 25.6%
- phagocytic capability of peritoneal macrophages ([4]; exposure to 10 μg/ml or greater): tremendously increased
- % phagocytic ([4]; highest concentration): over 25%
- yeast observed per macrophage, on average ([4]; highest concentration): ~1
- increase in the number of macrophages able to phagocytose ([4]; highest concentration vs resident population): 25 fold
